Holding throughout (assay type): cell-based, Saccharomyces cerevisiae
In assay [1] the test system is AH22 strain. Nature of the assay: Antifungal compound sensitivity test, control yeast AH22 strain (Example 19). To be noted: 30° C. 24.8 hours, relative value in percentage. How it is done:
(§1) The transformed budding yeast AH22-RsOS1 prepared in Example 18 was cultured while shaking at 30° C. for 18 hours in a Glu-Leu medium. As a control, the AH22 strain was similarly cultured while shaking at 30° C. for 18 hours in a Glu medium. The absorbance at 600 nm of each grown transformed budding yeast in a cell suspension was measured, and cell suspension diluted with sterilized distilled water to the absorbance of 0.1 was prepared. Further, a cell suspension in which the aforementioned cell suspension of the transformed budding yeast AH22-RsOS1 was diluted 50-fold with a Glu-Leu medium, and a cell suspension in which the aforementioned cell suspension of the AH22 strain was diluted 50-fold with a Glu medium were prepared.
(§2) A solution in which each of Compounds (1) to (5) was dissolved in dimethylsulfoxide (DMSO) to the concentration of 600 ppm, and a solution in which Compounds (6) and (7) was dissolved in dimethylsulfoxide (DMSO) to the concentration of 60 ppm were prepared, and two microplates were prepared in which each 1.0 μL per well of the Compound solution and DMSO as a control were dispensed. In one microplate among them, each 100 μL of cell suspensions of the transformed budding yeast AH22-RsOS1 which had been prepared by dilution as described above was dispensed, and cultured by allowing to stand at 30° C. for 29.8 hours. In another microplate, each 100 μL of cell suspensions of the control yeast AH22 strain which had been prepared by dilution as described above was dispensed, and cultured by allowing to stand at 30° C. for 24.8 hours. After culturing, the absorbance at 600 nm of each well was measured with a microplate reader.
(§3) A degree of growth of the transformed budding yeast is expressed as a relative value in percentage, letting the absorbance at 600 nm at the concentration of the Compound of 0 ppm to be 100. It was confirmed that an inhibiting degree of growth of the transformed budding yeast TM182-RsOS1 by each test substance was grater than an inhibiting degree of growth of the transformed budding yeast AH22-RsOS1 by each test substance, and the transformed budding yeast TM182-RsOS1 was a transformed cell with the enhanced sensitivity to an antifungal compound as compared with the transformed budding yeast AH22-RsOS1.

For assay [2], the system named is transformed budding yeast TM182-RsOS1. Nature of the assay: Antifungal compound sensitivity test of transformed budding yeast TM182-RsOS1 (Example 19). As to conditions: for Degree of growth of budding yeast TM182-RsOS1 Gal-Ura-Leu medium: control medium, 30° C. 42.5 hours; for Degree of growth of budding yeast TM182-RsOS1 Gul-Ura-Leu medium: 30° C. 26.8 hours. How it is done:
Similarly, the transformed budding yeast TM182-RsOS1 prepared in Example 18 was cultured at 30° C. for 18 hours in a Glu-Ura-Leu medium. The absorbance at 600 nm of the grown transformed budding yeast in a cell suspension was measured, and a cell suspension diluted with sterilized distilled water to the absorbance of 0.1 was prepared. Further, a cell suspension in which the transformed budding yeast TM182-RsOS1 was diluted 50-fold with a Glu-Ura-Leu medium. As a control, the transformed budding yeast TM182-RsOS1 was cultured at 30° C. for 18 hours in a Gal-Ura-Leu medium. The absorbance at 600 nm of the grown transformed budding yeast in a cell suspension was measured, and a cell suspension diluted with sterilized distilled water to the absorbance of 0.1 was prepared. Further, a cell suspension in which the transformed budding yeast TM182-RsOS1 was diluted 50-fold with a Gal-Ura-Leu medium.
A solution in which each of Compounds (1) to (5) was dissolved in dimethylsulfoxide (DMSO) to the concentration of 600 ppm, and a solution in which each of Compounds (6) and (7) was dissolved in dimethylsulfoxide (DMSO) to the concentration of 60 ppm were prepared, and two microplates were prepared in which each 2.0 μL per well of the Compound-DMSO solution and DMSO as a control were dispensed into 2 wells. In one microplate among them, each 100 μL of cell suspensions of the transformed budding yeast TM182-RsOS1 which had been prepared by dilution with a Glu-Ura-Leu medium as described above was dispensed, and cultured by allowing to stand at 30° C. for 26.8 hours. In another microplate, as described above, as a control, each 100 μL of cell suspensions of the transformed budding yeast TM182-RsOS1 which had been prepared by dilution with a Gal-Ura-Leu medium was dispensed, and cultured at 30° C. for 42.5 hours. After culturing the absorbance at 600 nm of each well was measured with a microplate reader.
as §3

The subject of assay [3] is transformed budding yeast AH22-RsOS1. Nature of the assay: Antifungal compound sensitivity test, transformed budding yeast AH22-RsOS1 (Example 19). To be noted: 30° C. 29.8 hours, relative value in percentage. How it is done:
as §1, §2, §3

The subject of assay [4] is AH22 strain. Nature of the assay: Antifungal compound sensitivity test, control yeast AH22 strain (Example 13). As to conditions: 30° C. 24.5 hours, relative value in percentage. The protocol: as §1, with “yeast AH22-FoOS1” for “yeast AH22-RsOS1”, “Example 12” for “Example 18”
A solution in which each of Compounds (1) to (3) was dissolved in dimethylsulfoxide (DMSO) to the concentration of 600 ppm, a solution in which each of Compounds (4) and (5) was dissolved in dimethylsulfoxide (DMSO) to the concentration of 2000 ppm, and a solution in which Compounds (6) and (7) was dissolved in dimethylsulfoxide (DMSO) to the concentration of 20 ppm were prepared, and two microplates were prepared in which each 1.0 μL per well of the Compound solution and DMSO as a control were dispensed. In one microplate among them, each. 100 μL of cell suspensions of the transformed budding yeast AH22-FoOS1 which had been prepared by dilution as described above was dispensed, and cultured by allowing to stand at 30° C. for 26.5 hours. In another microplate, each 100 μL of cell suspensions of the control yeast AH22 strain which had been prepared by dilution as described above was dispensed, and cultured by allowing to stand at 30° C. for 24.5 hours. After culturing, the absorbance at 600 nm of each well was measured with a microplate reader.
as §3, with “TM182-FoOS1” for “TM182-RsOS1”, “AH22-FoOS1” for “AH22-RsOS1”, “AH22-FoOS1.” for “AH22-RsOS1.”

Each structure is given as a SMILES string.

The values below come from patent publication US7452688B2, “Transformed cell with enhanced sensitivity to antifungal compound and use thereof” (Sumitomo Chemical Company, Limited, priority 2002, dated 2008).

Turning to `COP(=S)(OC)Oc1c(Cl)cc(C)cc1Cl` [Compound (5), Tolclofos-methyl], the “Degree of growth of budding yeast AH22 Glu medium” value in the assay on AH22 strain [1] (final concentration 6.0 ppm) worked out at 78%. For the same compound, in assay [2] (final concentration 6.0 ppm), the “Degree of growth of budding yeast TM182-RsOS1 Gal-Ura-Leu medium” value was 101% and the “Degree of growth of budding yeast TM182-RsOS1 Gul-Ura-Leu medium” value is 9%. Also, the “Degree of growth of budding yeast AH22-RsOS1 Glu-Leu medium” value in assay [3] (final concentration 6.0 ppm) came out at 85%. Further, the “Degree of growth of budding yeast AH22 Glu medium” value in the assay on AH22 strain [4] (final concentration 20 ppm) is recorded as 80%.

With `O=[N+]([O-])c1c(Cl)c(Cl)c(Cl)c(Cl)c1Cl` [Compound (4), Quintozene], the “Degree of growth of budding yeast AH22 Glu medium” value in the assay with AH22 strain [1] (final concentration 6.0 ppm) amounted to 83%; with AH22 strain [4] (final concentration 20 ppm), 96%. Besides, the “Degree of growth of budding yeast TM182-RsOS1 Gal-Ura-Leu medium” value in assay [2] (final concentration 6.0 ppm) came out at 88%. Also, in assay [2] (final concentration 6.0 ppm), the “Degree of growth of budding yeast TM182-RsOS1 Gul-Ura-Leu medium” value was 17%. Besides, the “Degree of growth of budding yeast AH22-RsOS1 Glu-Leu medium” value in assay [3] (final concentration 6.0 ppm) is recorded as 89%.

Turning to `N#Cc1c[nH]cc1-c1cccc(Cl)c1Cl` [Compound (7), Fenpiclonil], the figures for the “Degree of growth of budding yeast AH22 Glu medium” value with AH22 strain [1] (final concentration 0.6 ppm) and in the assay on AH22 strain [4] (final concentration 0.2 ppm) were 85% and 91%, respectively. Further, in assay [2] (final concentration 0.6 ppm), the “Degree of growth of budding yeast TM182-RsOS1 Gal-Ura-Leu medium” value is 99%. Besides, in assay [2] (final concentration 0.6 ppm), the “Degree of growth of budding yeast TM182-RsOS1 Gul-Ura-Leu medium” value came to 31%. In assay [3] (final concentration 0.6 ppm), the “Degree of growth of budding yeast AH22-RsOS1 Glu-Leu medium” value is 101%.

Turning to `N#Cc1c[nH]cc1-c1cccc2c1OC(F)(F)O2` [Compound (6), Fludioxonil], the “Degree of growth of budding yeast AH22 Glu medium” value is listed as 79% with AH22 strain [1] (final concentration 0.6 ppm) and 92% with AH22 strain [4] (final concentration 0.2 ppm). Moreover, the “Degree of growth of budding yeast TM182-RsOS1 Gal-Ura-Leu medium” value in assay [2] (final concentration 0.6 ppm) is recorded as 100%. Moreover, in assay [2] (final concentration 0.6 ppm), the “Degree of growth of budding yeast TM182-RsOS1 Gul-Ura-Leu medium” value is 12%. Moreover, in assay [3] (final concentration 0.6 ppm), the “Degree of growth of budding yeast AH22-RsOS1 Glu-Leu medium” value came to 79%.

On to `C=CC1(C)OC(=O)N(c2cc(Cl)cc(Cl)c2)C1=O` (centres unmarked) [Compound (3), Vinclozolin], for which the figures for the “Degree of growth of budding yeast AH22 Glu medium” value with AH22 strain [1] (final concentration 6.0 ppm) and with AH22 strain [4] (final concentration 6 ppm) were 82% and 87%, respectively. The “Degree of growth of budding yeast TM182-RsOS1 Gal-Ura-Leu medium” value in assay [2] (final concentration 6.0 ppm) worked out at 101%. Also, the “Degree of growth of budding yeast TM182-RsOS1 Gul-Ura-Leu medium” value in assay [2] (final concentration 6.0 ppm) worked out at 27%. In assay [3] (final concentration 6.0 ppm), the “Degree of growth of budding yeast AH22-RsOS1 Glu-Leu medium” value is given as 101%.

Regarding `CC(C)NC(=O)N1CC(=O)N(c2cc(Cl)cc(Cl)c2)C1=O` [Compound (2), Iprodione], the results for the “Degree of growth of budding yeast AH22 Glu medium” value in the assay on AH22 strain [1] (final concentration 6.0 ppm) and in the assay on AH22 strain [4] (final concentration 6 ppm) were 92% and 91%, respectively. The “Degree of growth of budding yeast TM182-RsOS1 Gal-Ura-Leu medium” value in assay [2] (final concentration 6.0 ppm) amounted to 96%. Also, the “Degree of growth of budding yeast TM182-RsOS1 Gul-Ura-Leu medium” value in assay [2] (final concentration 6.0 ppm) was 11%. Moreover, in assay [3] (final concentration 6.0 ppm), the “Degree of growth of budding yeast AH22-RsOS1 Glu-Leu medium” value is 101%.

`CC12CC1(C)C(=O)N(c1cc(Cl)cc(Cl)c1)C2=O` (centres unmarked) [Compound (1), Procymidone]: the “Degree of growth of budding yeast AH22 Glu medium” value in the assay with AH22 strain [1] (final concentration 6.0 ppm) is 88%. For the same compound, in assay [2] (final concentration 6.0 ppm), the “Degree of growth of budding yeast TM182-RsOS1 Gal-Ura-Leu medium” value is 108% and the “Degree of growth of budding yeast TM182-RsOS1 Gul-Ura-Leu medium” value was found to be 15%. The “Degree of growth of budding yeast AH22-RsOS1 Glu-Leu medium” value in assay [3] (final concentration 6.0 ppm) is given as 103%. In the assay with AH22 strain [4] (final concentration 6 ppm), the “Degree of growth of budding yeast AH22 Glu medium” value is on record as 88%.
